Measurements taken from patent US10570149B2, “Tricyclic heterocylic derivatives” (MERCK PATENT GMBH, priority 2016, dated 2020).

Key:
[1] = biological target: T1, Kv11.1 (hERG) ion channel (Homo sapiens, UniProt Q12809); experiment: Kv11.1 (hERG) ion channel activity, whole cell patch clamp; format: cell-based; conditions: for Ki: Table 3, HEK293 hERG patch clamp
T1 construct: expressed in transfected cells; host or cells: HEK293
Description: Kv11.1 (hERG) Ion Channel Activity
In this assay, a potential in vitro effect of test compounds on the Kv11.1 (hERG) ion channel current is investigated which mediates the rapidly activating, delayed rectifier cardiac potassium current (IKr). The assay is performed with a stable Kv11.1 (hERG) transfected human embryonic kidney cell line (HEK293) by whole cell patch clamp technique carried out at room temperature.
The Kv11.1 (hERG) ion channel blocker quinidine is used as reference compound. The effects of the test compounds and quinidine are normalized to the corresponding vehicle control. The whole cell recordings are carried out with an automated patch clamp device Patchliner™, Nanion Technologies, Munich). Hereby the Patch Clamp measurements run on silicate-coated chips with a hole of a defined diameter. Solutions, cell suspension and compounds are applied by a Teflon-laminated pipette needle through microfluidic silicate-laminated channels. Commercial patch clamp amplifiers (EPC10, HEKA Elektronik Dr. Schulze GmbH, Germany) are used for the patch clamp recordings. HEK293 cells stably expressing the hERG gene are held at −80 mV. Steady-state inhibition of Kv11.1 (hERG) potassium current due to test/reference compound application is measured using a pulse pattern with fixed amplitudes: 51 ms/−80 mV, 500 ms/+40 mV, 500 ms/−40 mV, 200 ms/−80 mV. The hERG-specific voltage protocol is repeated at 10 s intervals. The leak current is subtracted by a P4 leak subtraction. Cells are resuspended in extracellular patch clamp solution (EC) and applied into the chip. After trapping the cell, the EC is exchanged by seal enhancer solution (SE) to improve the sealing procedure. When the whole cell configuration is attained, seal enhancer is washed out by the application of EC. The recording is started in EC for 1.5 min. Afterwards DMSO (vehicle control, 0.1% DMSO) is applied and the control current is measured for 3 min. Following control steady-state current, test compound is applied twice at the same concentration and the tail current is measured for 3.5 min each. For the determination of a concentration-relationship, the test compound is applied as a cumulative concentration-response curve and each concentration is measured for 5 min. The reference compound quinidine is treated in the same way. The effect on Kv11.1 (hERG) ion channel activity is judged from the tail current amplitude monitored at −40 mV (current of interest, COI). Results are calculated from the last recorded current traces. Changes in Kv11.1 (hERG) ion channel activity between control value, defined as 100% Kv11.1 (hERG) ion channel activity, application of test compound and application of quinidine is reported as percent change of control value of COI. An aliquot of test compound is collected for concentration verification during the recording. The sample is immediately measured by HPLC and the final compound concentration within the assay is calculated according to a calibration curve.

[2] = system: phosphorylation of Chk1 (Ser 345) in HT29 colon adenocarcinoma cells; experiment: pCHK1 cellular assay; format: cell-based; conditions: Homo sapiens
Method in brief: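 HT29 cells plated ≥20 h, then compound (1 nM–30 μM final) with hydroxyurea (3 mM final) added together for 4 h at 37 °C. After MeOH/Triton fixation-permeabilisation, anti-pChk1 immunostaining plus nuclear stain; nuclear pChk1 imaged by confocal high content reader, reported as % positive nuclei.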

[3] = biological target: T2, ATR/ATRIP (Homo sapiens, UniProt Q13535); experiment: ATR/ATRIP kinase assay (TR-FRET, p53 phosphorylation); format: biochemical; conditions: Table 1, class symbols; read-out: ATR-ATRIP IC50
T2 construct: human ATR, full length, GenBank ID: NM_001184.3; p53: Sf21 insect cells

[4] = HT-29, Table 1, class symbols, hydroxyurea

T2 sequence (Q13535 whole entry): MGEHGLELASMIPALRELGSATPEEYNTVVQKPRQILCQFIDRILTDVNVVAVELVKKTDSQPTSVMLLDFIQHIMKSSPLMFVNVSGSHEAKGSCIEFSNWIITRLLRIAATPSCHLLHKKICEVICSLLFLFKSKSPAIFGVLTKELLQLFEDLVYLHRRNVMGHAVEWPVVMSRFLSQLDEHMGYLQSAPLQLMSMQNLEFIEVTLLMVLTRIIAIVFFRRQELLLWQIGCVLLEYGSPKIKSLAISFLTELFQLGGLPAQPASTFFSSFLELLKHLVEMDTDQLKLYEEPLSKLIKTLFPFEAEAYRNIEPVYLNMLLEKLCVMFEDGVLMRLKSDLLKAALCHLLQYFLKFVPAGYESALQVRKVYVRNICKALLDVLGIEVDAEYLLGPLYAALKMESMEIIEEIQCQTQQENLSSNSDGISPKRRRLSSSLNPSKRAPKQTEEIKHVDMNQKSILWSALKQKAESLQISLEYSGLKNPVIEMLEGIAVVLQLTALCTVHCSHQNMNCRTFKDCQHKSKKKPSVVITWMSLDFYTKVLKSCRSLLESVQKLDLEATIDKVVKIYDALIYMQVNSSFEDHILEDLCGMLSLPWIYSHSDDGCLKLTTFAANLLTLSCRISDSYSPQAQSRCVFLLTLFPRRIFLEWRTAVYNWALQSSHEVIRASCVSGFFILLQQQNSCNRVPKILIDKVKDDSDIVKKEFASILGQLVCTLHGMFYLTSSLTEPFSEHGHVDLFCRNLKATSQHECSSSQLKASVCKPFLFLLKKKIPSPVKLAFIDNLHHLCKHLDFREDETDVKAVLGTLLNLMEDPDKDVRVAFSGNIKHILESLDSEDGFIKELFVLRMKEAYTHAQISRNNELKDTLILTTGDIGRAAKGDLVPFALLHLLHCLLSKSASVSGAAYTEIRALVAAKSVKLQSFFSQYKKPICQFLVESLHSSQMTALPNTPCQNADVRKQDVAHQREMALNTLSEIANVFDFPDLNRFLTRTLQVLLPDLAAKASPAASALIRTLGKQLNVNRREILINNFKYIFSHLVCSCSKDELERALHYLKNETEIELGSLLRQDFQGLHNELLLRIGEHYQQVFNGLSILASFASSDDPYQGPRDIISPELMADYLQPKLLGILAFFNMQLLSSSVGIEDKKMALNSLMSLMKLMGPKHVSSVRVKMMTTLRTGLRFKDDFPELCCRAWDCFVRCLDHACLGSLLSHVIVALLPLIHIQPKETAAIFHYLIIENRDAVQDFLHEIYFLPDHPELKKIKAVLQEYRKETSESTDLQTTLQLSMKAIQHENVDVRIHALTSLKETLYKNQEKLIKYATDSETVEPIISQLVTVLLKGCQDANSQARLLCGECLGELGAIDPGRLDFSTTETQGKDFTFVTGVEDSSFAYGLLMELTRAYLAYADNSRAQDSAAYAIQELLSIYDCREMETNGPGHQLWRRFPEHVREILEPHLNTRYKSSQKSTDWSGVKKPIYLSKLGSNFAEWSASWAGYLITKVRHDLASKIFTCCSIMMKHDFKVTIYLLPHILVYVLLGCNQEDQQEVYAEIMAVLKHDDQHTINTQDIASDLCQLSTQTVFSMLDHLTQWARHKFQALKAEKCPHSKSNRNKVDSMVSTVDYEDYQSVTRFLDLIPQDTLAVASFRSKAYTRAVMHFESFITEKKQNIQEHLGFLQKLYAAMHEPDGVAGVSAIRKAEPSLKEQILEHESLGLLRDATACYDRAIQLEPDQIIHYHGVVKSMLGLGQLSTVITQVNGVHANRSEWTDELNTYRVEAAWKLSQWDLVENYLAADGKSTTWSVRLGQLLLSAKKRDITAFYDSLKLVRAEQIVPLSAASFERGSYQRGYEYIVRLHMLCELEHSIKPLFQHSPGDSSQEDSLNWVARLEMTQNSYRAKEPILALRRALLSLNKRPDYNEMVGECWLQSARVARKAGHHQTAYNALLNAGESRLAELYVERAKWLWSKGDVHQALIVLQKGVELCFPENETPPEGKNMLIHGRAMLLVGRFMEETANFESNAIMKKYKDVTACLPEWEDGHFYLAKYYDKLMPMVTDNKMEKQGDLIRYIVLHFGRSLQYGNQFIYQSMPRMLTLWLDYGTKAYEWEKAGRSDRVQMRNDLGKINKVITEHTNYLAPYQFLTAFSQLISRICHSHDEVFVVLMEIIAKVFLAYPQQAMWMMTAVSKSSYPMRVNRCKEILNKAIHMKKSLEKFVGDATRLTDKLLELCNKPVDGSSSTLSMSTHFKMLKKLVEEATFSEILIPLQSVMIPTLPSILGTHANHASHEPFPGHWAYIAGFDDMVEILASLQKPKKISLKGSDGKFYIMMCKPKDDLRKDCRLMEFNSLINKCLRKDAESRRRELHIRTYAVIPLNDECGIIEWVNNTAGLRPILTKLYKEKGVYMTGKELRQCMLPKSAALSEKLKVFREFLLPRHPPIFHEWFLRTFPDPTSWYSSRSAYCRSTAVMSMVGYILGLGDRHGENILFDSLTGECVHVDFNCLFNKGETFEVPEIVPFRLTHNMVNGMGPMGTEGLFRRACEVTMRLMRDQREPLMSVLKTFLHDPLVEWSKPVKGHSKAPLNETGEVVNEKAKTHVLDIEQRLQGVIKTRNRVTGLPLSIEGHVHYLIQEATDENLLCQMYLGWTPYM
T2 sequence (Q8WXE1 whole entry partner): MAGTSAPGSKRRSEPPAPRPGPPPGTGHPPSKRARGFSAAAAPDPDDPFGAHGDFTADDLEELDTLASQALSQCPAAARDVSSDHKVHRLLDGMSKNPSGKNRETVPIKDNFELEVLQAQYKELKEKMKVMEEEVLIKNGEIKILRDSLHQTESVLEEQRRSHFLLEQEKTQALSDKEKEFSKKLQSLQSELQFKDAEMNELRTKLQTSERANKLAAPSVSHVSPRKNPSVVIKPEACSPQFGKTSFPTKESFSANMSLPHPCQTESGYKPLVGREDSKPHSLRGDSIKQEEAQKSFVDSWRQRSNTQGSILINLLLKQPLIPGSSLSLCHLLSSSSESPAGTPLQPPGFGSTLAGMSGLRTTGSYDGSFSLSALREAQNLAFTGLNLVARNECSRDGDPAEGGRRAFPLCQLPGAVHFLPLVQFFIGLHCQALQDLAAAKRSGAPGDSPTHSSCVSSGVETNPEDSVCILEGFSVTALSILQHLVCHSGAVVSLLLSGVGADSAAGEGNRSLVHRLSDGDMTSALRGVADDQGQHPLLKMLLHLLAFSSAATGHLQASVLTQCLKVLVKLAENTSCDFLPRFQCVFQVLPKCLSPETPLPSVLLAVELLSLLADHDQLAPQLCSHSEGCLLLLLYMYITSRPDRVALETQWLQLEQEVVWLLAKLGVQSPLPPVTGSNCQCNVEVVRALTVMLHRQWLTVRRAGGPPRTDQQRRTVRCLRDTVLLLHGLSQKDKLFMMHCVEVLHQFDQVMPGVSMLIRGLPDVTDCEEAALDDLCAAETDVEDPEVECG
T1 sequence (Q12809 whole entry): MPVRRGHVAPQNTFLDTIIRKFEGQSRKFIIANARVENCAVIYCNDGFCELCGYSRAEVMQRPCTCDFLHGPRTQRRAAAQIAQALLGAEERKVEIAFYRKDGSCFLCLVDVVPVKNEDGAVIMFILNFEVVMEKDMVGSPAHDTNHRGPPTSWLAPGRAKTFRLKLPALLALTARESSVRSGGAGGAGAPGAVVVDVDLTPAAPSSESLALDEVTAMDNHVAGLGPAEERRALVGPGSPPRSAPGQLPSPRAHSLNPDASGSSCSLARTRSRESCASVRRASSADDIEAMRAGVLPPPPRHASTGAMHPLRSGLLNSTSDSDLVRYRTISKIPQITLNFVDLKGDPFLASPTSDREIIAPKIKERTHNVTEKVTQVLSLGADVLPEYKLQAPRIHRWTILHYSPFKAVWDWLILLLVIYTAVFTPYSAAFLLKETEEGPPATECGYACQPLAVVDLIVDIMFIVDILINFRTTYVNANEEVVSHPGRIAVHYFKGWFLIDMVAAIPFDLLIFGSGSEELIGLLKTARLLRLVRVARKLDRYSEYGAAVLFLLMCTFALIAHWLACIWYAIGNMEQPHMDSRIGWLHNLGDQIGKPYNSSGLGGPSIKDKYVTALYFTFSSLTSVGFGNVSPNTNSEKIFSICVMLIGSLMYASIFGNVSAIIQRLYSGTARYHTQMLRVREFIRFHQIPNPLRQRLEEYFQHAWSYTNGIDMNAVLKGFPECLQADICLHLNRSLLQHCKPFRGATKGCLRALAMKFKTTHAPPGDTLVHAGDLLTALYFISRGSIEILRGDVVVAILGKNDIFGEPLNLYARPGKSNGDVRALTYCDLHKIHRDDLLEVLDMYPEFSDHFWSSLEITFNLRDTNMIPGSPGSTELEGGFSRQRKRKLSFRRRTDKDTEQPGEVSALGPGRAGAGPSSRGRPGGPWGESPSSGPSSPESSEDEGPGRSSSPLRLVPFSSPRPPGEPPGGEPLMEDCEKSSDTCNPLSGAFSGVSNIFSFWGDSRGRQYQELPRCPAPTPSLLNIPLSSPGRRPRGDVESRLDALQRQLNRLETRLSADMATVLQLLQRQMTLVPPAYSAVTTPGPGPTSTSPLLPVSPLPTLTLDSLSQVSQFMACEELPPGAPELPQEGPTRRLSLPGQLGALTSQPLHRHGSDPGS

IC50 [2, 4]	IC50 ([2]; HT-29, Table 3, hydroxyurea)	IC50 [3]	Structure (SMILES)	hERG % effect @ conc ([1]; @ 10 μM)	Ki [1]	hERG % effect @ conc ([1]; @ 30 μM)
10 to 100 nM	36 nM	< 1 nM	C[C@@H]1COC[C@H]2COc3c(nc(-c4c(N)cnc5[nH]ccc45)nc3C(C)(C)S(C)(=O)=O)N21 [A20, 4-[(4bR,8S)-1-(1-Methanesulfonyl-1-methyl-ethyl)-5-methyl-5,6,8a,9-tetrahydro-8H-7,10-dioxa-2,4,4b-triaza-phenanthren-3-yl]-1H-pyrrolo[2,3-b]pyridin-5-ylamine]	(−19% effect @ 10 μM)	> 10000 nM	
10 to 100 nM	20 nM	< 1 nM	C[C@@H]1COC[C@H]2COc3c(nc(-c4ccnc5[nH]ccc45)nc3C(C)(C)S(C)(=O)=O)N21 [A13, (6R,8aS)-1-(1-Methanesulfonyl-1-methyl-ethyl)-5-methyl-3-(1H-pyrrolo[2,3-b]pyridin-4-yl)-5,6,8a,9-tetrahydro-8H-7,10-dioxa-2,4,4b-triaza-phenanthrene]	(−55% effect @ 10 μM)	6500 nM	

Structure (SMILES)	IC50 [2, 4]	IC50 ([2]; HT-29, Table 3, hydroxyurea)	IC50 [3]	hERG % effect @ conc ([1]; @ 10 μM)	Ki [1]	hERG % effect @ conc ([1]; @ 30 μM)
CNc1cnc2[nH]ccc2c1-c1nc2c(c(C(C)(C)S(C)(=O)=O)n1)OC[C@@H]1COC[C@@H](C)N21 [A1, {4-[(S)-1-(1-Methanesulfonyl-1-methyl-ethyl)-5-(R)-methyl-5,6,8a,9-tetrahydro-8H-7,10-dioxa-2,4,4b-triaza-phenanthren-3-yl]-1H-pyrrolo[2,3-b]pyridin-5-yl}-methyl-amine]	< 10 nM	6.2 nM	< 1 nM		> 30000 nM	(−50% @ 30 μM)
